Assay results taken from US12495798B2, “Nicotinamide compound and herbicidal composition comprising compound” (KOREA RESEARCH INSTITUTE OF CHEMICAL TECHNOLOGY, priority 2019, dated 2025).

Legend:
Assay type in all cases: in vivo
quack grass = assay: Herbicidal activity test against upland field weeds (foliar treatment test); parameters: key to Foliar treatment herbicidal activity, quack grass: 0 (no control); 100 (complete control); details: 50 g ai/ha, scale 0-100
Procedure, shortened: (§1)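 Greenhouse-grown plants (30±5 °C, 14/10 h light/dark) foliar hand-sprayed with compound in 50% acetone, 0.1% Tween-20 at 50 or 75 g a.i./ha. Control visually scored 0 (none) to 100 (complete) versus untreated after 14 days, or 21 days if needed.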

crabgrass [1] = assay: Herbicidal activity test against upland field weeds (soil treatment test); parameters: key to Soil treatment herbicidal activity, Crabgrass: 0 (no control); 100 (complete control); details: 50 g ai/ha, scale 0 (no control) to 100 (complete control)
Procedure, shortened: (§2)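 Pre-emergence soil surface spray, day after sowing, into sandy loam pots with fertilizer; compounds at 50 or 75 g a.i./ha in 50% acetone, 0.1% Tween-20. Greenhouse at 30±5 °C, 14/10 h light/dark; visual control rated 0–100 against untreated after 14 days (21 if needed).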

velvetleaf = assay: Herbicidal activity test against upland field weeds (foliar treatment test); details: Abutilon theophrasti, 50 g ai/ha, scale 0-100, read-out: Foliar treatment herbicidal activity, velvet leaf
Procedure, shortened: as §1

fall panicum [2] = assay: as above; details: Panicum dichotomiflorum, 50 g ai/ha, scale 0-100
Procedure, shortened: as §1

rice = assay: Phytotoxicity test for field crops (soil treatment test); parameters: key: 0 (no harm); 9 (complete withered)
Procedure, shortened: (§3)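 Visual phytotoxicity grading (0 no harm to 9 complete withering, relative to untreated control) 10 and 20 days after a pre-emergence soil spray applied one day post-sowing. Rates 19˜300 g a.i./ha in 33% acetone/0.1% Tween-20; sterilized soil pH 6.1, fertilized; greenhouse 30±5° C, 14/10 h photoperiod.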

soybean = assay: as above; parameters: key: 0 (no harm); 9 (complete withered)
Procedure, shortened: as §3

wheat = assay: as above; parameters: key: 0 (no harm); 9 (complete withered)
Procedure, shortened: as §3

cotton = assay: as above; parameters: key: 0 (no harm); 9 (complete withered)
Procedure, shortened: as §3

corn = assay: as above; parameters: key: 0 (no harm); 9 (complete withered)
Procedure, shortened: as §3

black nightshade = assay: Herbicidal activity test against upland field weeds (foliar treatment test); parameters: key to Foliar treatment herbicidal activity, black nightshade: 0 (no control); 100 (complete control); details: 50 g ai/ha, scale 0-100; for pest or weed control at 50 g/ha: Solanum nigrum
Procedure, shortened: as §1

crabgrass [3] = assay: as above; parameters: key to Foliar treatment herbicidal activity, Crabgrass: 0 (no control); 100 (complete control); details: 50 g ai/ha, scale 0-100; for pest or weed control at 50 g/ha: Digitaria sanguinalis
Procedure, shortened: as §1

cocklebur = assay: Herbicidal activity test against upland field weeds (soil treatment test); parameters: key to Soil treatment herbicidal activity, Cocklebur: 0 (no control); 100 (complete control); details: 50 g ai/ha, scale 0 (no control) to 100 (complete control)
Procedure, shortened: as §2

fall panicum [4] = assay: as above; parameters: key to Soil treatment herbicidal activity, Fall panicum: 0 (no control); 100 (complete control); details: 50 g ai/ha, scale 0 (no control) to 100 (complete control)
Procedure, shortened: as §2

[5] = 50 g ai/ha, Rice (10 days after treatment)
[6] = 50 g ai/ha, Rice (20 days after treatment)
[7] = 100 g ai/ha, Rice (10 days after treatment)
[8] = 100 g ai/ha, Rice (20 days after treatment)
[9] = 50 g ai/ha, Soybean (10 days after treatment)
[10] = 50 g ai/ha, Soybean (20 days after treatment)
[11] = 100 g ai/ha, Soybean (10 days after treatment)
[12] = 100 g ai/ha, Soybean (20 days after treatment)
[13] = 50 g ai/ha, Wheat (10 days after treatment)
[14] = 100 g ai/ha, Wheat (10 days after treatment)
[15] = 100 g ai/ha, Wheat (20 days after treatment)
[16] = 50 g ai/ha, Cotton (10 days after treatment)
[17] = 50 g ai/ha, Cotton (20 days after treatment)
[18] = 100 g ai/ha, Cotton (10 days after treatment)
[19] = 100 g ai/ha, Cotton (20 days after treatment)
[20] = 50 g ai/ha, Corn (10 days after treatment)
[21] = 50 g ai/ha, Corn (20 days after treatment)
[22] = 100 g ai/ha, Corn (10 days after treatment)
[23] = 100 g ai/ha, Corn (20 days after treatment)
[24] = 50 g ai/ha, Wheat (20 days after treatment)

| SMILES | Foliar treatment herbicidal activity, quack grass (quack grass) | Soil treatment herbicidal activity, Crabgrass (crabgrass [1]) | pest or weed control at 50 g/ha (velvetleaf) [%] | pest or weed control at 50 g/ha (fall panicum [2]) [%] | Soil treatment phytotoxicity, Rice (rice; [5]) | Soil treatment phytotoxicity, Rice (rice; [6]) | Soil treatment phytotoxicity, Rice (rice; [7]) | Soil treatment phytotoxicity, Rice (rice; [8]) | Soil treatment phytotoxicity, Soybean (soybean; [10]) | Soil treatment phytotoxicity, Soybean (soybean; [12]) | Soil treatment phytotoxicity, Wheat (wheat; [13]) | Soil treatment phytotoxicity, Wheat (wheat; [14]) | Soil treatment phytotoxicity, Wheat (wheat; [15]) | Soil treatment phytotoxicity, Cotton (cotton; [16]) | Soil treatment phytotoxicity, Cotton (cotton; [17]) | Soil treatment phytotoxicity, Cotton (cotton; [18]) | Soil treatment phytotoxicity, Cotton (cotton; [19]) | Soil treatment phytotoxicity, Corn (corn; [20]) | Soil treatment phytotoxicity, Corn (corn; [21]) | Soil treatment phytotoxicity, Corn (corn; [22]) | further results |
| --- | --- | --- | --- | --- | --- | --- | --- | --- | --- | --- | --- | --- | --- | --- | --- | --- | --- | --- | --- | --- | --- |
| Cn1nnc(COCc2nc(C(F)(F)F)ccc2C(=S)Nc2nnnn2C)n1 [Compound No. 2-106, N-(1-methyl-1H-tetrazol-5-yl)-2-(((2-methyl-2H-tetrazol-5-yl)methoxy)methyl)-6-(trifluoromethyl)pyridin-3-carbothioamide] | 0 | 100 | 95 | 70 | 8 | 8 | 9 | 9 | 0 | 0 | 0 | 0 | 1 | 4 | 6.5 | 5 | 8 | 0 | 0 | 0 | Soil treatment phytotoxicity, Soybean (soybean; [9]): 0; Soil treatment phytotoxicity, Soybean (soybean; [11]): 0; Soil treatment phytotoxicity, Corn (corn; [23]): 0; pest or weed control at 50 g/ha (black nightshade): 95%; pest or weed control at 50 g/ha (crabgrass [3]): 70%; Soil treatment herbicidal activity, Cocklebur (cocklebur): 100; Soil treatment herbicidal activity, Fall panicum (fall panicum [4]): 100 |
| Cn1nnc(CSCc2nc(C(F)F)ccc2C(=O)Nc2nnnn2C)n1 [Compound No. 2-108, 6-(difluoromethyl)-N-(1-methyl-1H-tetrazol-5-yl)-2-((((2-methyl-2H-tetrazol-5-yl)methyl)thio)methyl)nicotinamide] | 0 | 0 | 30 | 50 | 0 | 0 | 0 | 0 | 0 | 3 | 0 | 0 | 0 | 0 | 1 | 0 | 3 | 0 | 0 | 0 | Soil treatment phytotoxicity, Wheat (wheat; [24]): 0; Soil treatment phytotoxicity, Corn (corn; [23]): 0; Foliar treatment herbicidal activity, black nightshade (black nightshade): 100; pest or weed control at 50 g/ha (crabgrass [3]): 60%; Soil treatment herbicidal activity, Cocklebur (cocklebur): 0; Soil treatment herbicidal activity, Fall panicum (fall panicum [4]): 0 |
| Cn1nnc(CSCc2nc(C(F)(F)F)ccc2C(=O)N(C(=O)c2ccccc2)c2nnnn2C)n1 [Compound No. 2-109, N-benzoyl-N-(1-methyl-1H-tetrazol-5-yl)-2-((((2-methyl-2H-tetrazol-5-yl)methyl)thio)methyl)-6-(trifluoromethyl)nicotinamide] | 0 | 0 | 80 | 95 | 0 | 0 | 0 | 0 | 1 | 0 | 0 | 0 | 0 | 0 | 0 | 0 | 1 | 0 | 0 | 1 | Soil treatment phytotoxicity, Wheat (wheat; [24]): 0; Soil treatment phytotoxicity, Corn (corn; [23]): 0; Foliar treatment herbicidal activity, black nightshade (black nightshade): 100; Foliar treatment herbicidal activity, Crabgrass (crabgrass [3]): 100; Soil treatment herbicidal activity, Cocklebur (cocklebur): 0; Soil treatment herbicidal activity, Fall panicum (fall panicum [4]): 0 |
| Cn1nc(COCc2nc(C(F)(F)F)ccc2C(=O)Nc2nnnn2C)nc1Cl [Compound No. 2-135, 2-(((5-chloro-1-methyl-1H-1,2,4-triazol-3-yl)methoxy)methyl)-N-(1-methyl-1H-tetrazol-5-yl)-6-(trifluoromethyl)nicotinamide] | 0 | 0 | 40 | 50 | 6 | 8 | 7 | 8 | 0 | 3 | 0 | 0 | 0 | 1 | 3 | 1 | 4 | 0 | 0 | 0 | Soil treatment phytotoxicity, Soybean (soybean; [9]): 0; Soil treatment phytotoxicity, Soybean (soybean; [11]): 2; Soil treatment phytotoxicity, Wheat (wheat; [24]): 0; Soil treatment phytotoxicity, Corn (corn; [23]): 0; pest or weed control at 50 g/ha (black nightshade): 98%; pest or weed control at 50 g/ha (crabgrass [3]): 70%; Soil treatment herbicidal activity, Cocklebur (cocklebur): 0; Soil treatment herbicidal activity, Fall panicum (fall panicum [4]): 0 |
